In patent US20260085067A1, “CYCLIC SULFONAMIDE RIBONUCLEOTIDE REDUCTASE (RNR) INHIBITORS AND USES THEREOF” (Boundless Bio, Inc., priority 2022, published 2026):

Key:
[1] = target: T1, RNR (RNR1:RNR2 1:1) (Homo sapiens, UniProt P23921); assay: RNR enzyme activity, rapid-fire mass spectrometry (RF/MS) assay; assay type: biochemical; conditions: [RNR] 50 nM, 1:1 RNR1:RNR2; CDP 5 μM; ATP 1 mM; 37° C., 45 min; compounds screened up to 50 μM
T1 sequence (P23921 1-792): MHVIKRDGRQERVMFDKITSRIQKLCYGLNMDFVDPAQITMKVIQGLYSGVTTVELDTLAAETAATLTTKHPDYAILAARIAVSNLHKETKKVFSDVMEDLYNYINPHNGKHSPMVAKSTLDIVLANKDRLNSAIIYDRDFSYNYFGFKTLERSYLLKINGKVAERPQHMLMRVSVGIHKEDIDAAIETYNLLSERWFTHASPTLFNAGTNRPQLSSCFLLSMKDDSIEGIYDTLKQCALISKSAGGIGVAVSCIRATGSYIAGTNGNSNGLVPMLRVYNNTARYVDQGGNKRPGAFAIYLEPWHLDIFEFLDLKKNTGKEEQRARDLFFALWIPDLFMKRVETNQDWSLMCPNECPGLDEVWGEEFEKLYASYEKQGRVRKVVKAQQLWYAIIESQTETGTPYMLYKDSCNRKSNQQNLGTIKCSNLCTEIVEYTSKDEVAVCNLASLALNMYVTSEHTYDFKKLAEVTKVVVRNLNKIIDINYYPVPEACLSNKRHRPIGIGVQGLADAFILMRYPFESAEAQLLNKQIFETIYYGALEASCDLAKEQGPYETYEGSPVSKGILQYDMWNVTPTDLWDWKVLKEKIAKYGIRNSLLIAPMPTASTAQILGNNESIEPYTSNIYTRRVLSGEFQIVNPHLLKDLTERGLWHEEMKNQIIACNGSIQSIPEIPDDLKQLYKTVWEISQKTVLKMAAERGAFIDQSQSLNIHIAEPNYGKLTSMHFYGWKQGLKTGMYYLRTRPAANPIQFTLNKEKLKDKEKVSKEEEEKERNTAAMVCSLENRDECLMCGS
Procedure: A rapid-fire mass spectrometry (RF/MS) assay was used to assess RNR enzyme activity using a 384 well plate and a robotic platform.
The plate layout included two validated reference compounds (Triapine (3-AP) and Hydroxyurea (HU)): • A dose response in duplicate; top concentration: 5 μM (3-AP) and 250 μM (HU), semi-log dilutions. • Spike wells in triplicate randomly spotted at four concentrations: • 250 μM, 100 μM, 30 μM and 2 μM for HU • 5 μM, 2 μM, 0.6 μM and 0.04 μM for 3-AP
First, the multidrop pipes were saturated for 30 minutes with enzymatic solution. Then 30 μL of Stop solution was distributed in column 24. Next, 15 μL of enzyme was distributed in column 1 to 24. Next, a pre-incubation step of 15 minutes at room temperature occurred, followed by distribution of 15 μL of substrate solution (column 1 to 24). Next, the plate was incubated for 45 minutes at 37° C. 30 μL of Stop solution was then distributed to columns 1 to 23.
The final parameters for the enzyme reactions were: • Incubation: 37° C., 45 min • [CDP]: 5 μM; [ATP]: 1 mM; [NADPH]: No • [RNR]final: 50 nM with 1:1 (RNR1:RNR2) ratio • Final volume: 30 μL • Stop solution: 6% HCOOH in water

[2] = tested on: pCHK1 (S345) in Colo320 DM cells; assay: Alphalisa assay, detection of pCHK1 (S345) in Colo320 DM cells; assay type: cell-based, human; conditions: Homo sapiens, COLO 320DM, compound overnight (approximately 16 hours)
Procedure: Colo320 DM cells (ATCC #CCL-220, derived from human colorectal adenocarcinoma, Dukes' type C) were seeded on a […], cell culture treated assay plate at a density of 50,000 cells/well in 200 μL of RPMI-1640 media supplemented with 10% Fetal Bovine Serum and incubated at 37° C. overnight. The following day, test compound dilutions were added directly to the plated cells by a Tecan digital dispenser to a final DMSO concentration of <0.5%. and incubated at 37° C. overnight (approximately 16 hours). The following day all cell culture media was removed from the cells. 75 μL of 1×AlphaLisa lysis buffer was added to each well and plates were agitated on a shaker for 30 minutes at room temperature. The lysis of cells and detection of pCHK1 (S345) were performed with reagents contained within the AlphaLisa Sure Fire assay kit (Perkin Elmer #ALSU-PCHK1-A) according to the manufacturer's instructions. 10 μL of each lysate was then transferred to a white, 384-well assay plate (Perkin Elmer #6008280). 5 μL of Acceptor mix was then added to each well of lysate in the white, 384-well assay plate and incubated in the dark at room temperature for 60 minutes. 5 μL of Donor mix was then added to each well of the white, 384-well assay plate in subdued light and incubated at room temperature for 60 minutes. Plates were read on an Alpha Technology-compatible plate reader using standard AlphaLisa settings.

For `Cc1ccc(F)c([C@@H](C)[C@@H](c2n[nH]c(=O)o2)N2CCOc3c(ccc(Cl)c3[C@H](C)N(C)C)S2(=O)=O)c1C` (single isomer, unassigned) [Example 53], the IC50 [1] was < 20 nM and the IC50 [2] was 1000 to 5000 nM.
In the case of `Cc1ccc(F)c([C@@H](C)[C@@H](c2n[nH]c(=O)o2)N2CCOc3c(ccc(Cl)c3[C@@H](C)N(C)C)S2(=O)=O)c1C` (single isomer, unassigned) [Example 54], the IC50 [1] is reported as < 20 nM and the IC50 [2] is reported as 1000 to 5000 nM.
With `Cc1ccc(F)c([C@@H](C)[C@@H](c2n[nH]c(=O)o2)N2CN(C3CCCOC3)c3cc(Cl)ccc3S2(=O)=O)c1C` (stereo in doubt) [Example 43, 5-((1S,2R)-1-(6-chloro-1,1-dioxido-4-((S)-tetrahydro-2H-pyran-3-yl)-3,4-dihydro-2H-benzo[e][1,2,4]thiadiazin-2-yl)-2-(6-fluoro-2,3-dimethylphenyl)propyl)-1,3,4-oxadiazol-2 (3H)-one] the IC50 [1] was < 20 nM and the IC50 [2] was ≤ 1000 nM.
In the case of `Cc1ccc(F)c([C@@H](C)[C@@H](c2n[nH]c(=O)o2)N2CN(C3CCCOC3)c3cc(Cl)ccc3S2(=O)=O)c1C` (stereo in doubt) [Example 44, 5-((1S,2R)-1-(6-chloro-1,1-dioxido-4-((R)-tetrahydro-2H-pyran-3-yl)-3,4-dihydro-2H-benzo[e][1,2,4]thiadiazin-2-yl)-2-(6-fluoro-2,3-dimethylphenyl)propyl)-1,3,4-oxadiazol-2 (3H)-one], the IC50 [1] is reported as < 20 nM and the IC50 [2] is reported as ≤ 1000 nM.
`Cc1ccc(F)c([C@@H](C)[C@@H](c2n[nH]c(=O)o2)N2CN(C(C)C)c3cc(Cl)ccc3S2(=O)=O)c1C` [Example 4, 5-((1S,2R)-1-(6-chloro-4-isopropyl-1,1-dioxido-3,4-dihydro-2H-benzo[e][1,2,4]thiadiazin-2-yl)-2-(6-fluoro-2,3-dimethylphenyl)propyl)-1,3,4-oxadiazol-2 (3H)-one] gave an IC50 [1] of 100 to 1000 nM and an IC50 [2] of 1000 to 5000 nM.
`Cc1ccc(F)c([C@@H](C)[C@@H](c2n[nH]c(=O)o2)N2CN(C)c3cc(Cl)cnc3S2(=O)=O)c1C` [Example 5, 5-((1S,2R)-1-(6-chloro-4-methyl-1,1-dioxido-3,4-dihydro-2H-pyrido[3,2-e][1,2,4]thiadiazin-2-yl)-2-(6-fluoro-2,3-dimethylphenyl)propyl)-1,3,4-oxadiazol-2 (3H)-one] gave an IC50 [1] of 20 to 100 nM and an IC50 [2] of 1000 to 5000 nM.
In the case of `Cc1ccc(F)c([C@@H](C)[C@@H](c2n[nH]c(=O)o2)N2CN(C3CC3)c3cc(Cl)ccc3S2(=O)=O)c1C` [Example 6, 5-((1S,2R)-1-(6-chloro-4-cyclopropyl-1,1-dioxido-3,4-dihydro-2H-benzo[e][1,2,4]thiadiazin-2-yl)-2-(6-fluoro-2,3-dimethylphenyl)propyl)-1,3,4-oxadiazol-2 (3H)-one], the IC50 [1] is reported as 20 to 100 nM and the IC50 [2] is reported as ≤ 1000 nM.
`Cc1ccc(F)c([C@@H](C)[C@@H](c2n[nH]c(=O)o2)N2COc3cc(Cl)ccc3S2(=O)=O)c1C` [Example 7, 5-((1S,2R)-1-(6-chloro-1,1-dioxidobenzo[e][1,4,3]oxathiazin-2 (3H)-yl)-2-(6-fluoro-2,3-dimethylphenyl)propyl)-1,3,4-oxadiazol-2 (3H)-one] was tested, and the IC50 [1] was 20 to 100 nM and the IC50 [2] was ≤ 1000 nM.
With `[2H]C([2H])([2H])N1CN([C@H](c2n[nH]c(=O)o2)[C@H](C)c2c(F)ccc(C)c2C)S(=O)(=O)c2ccc(Cl)cc21` [Example 9, 5-((1S,2R)-1-(6-chloro-4-(methyl-d3)-1,1-dioxido-3,4-dihydro-2H-benzo[e][1,2,4]thiadiazin-2-yl)-2-(6-fluoro-2,3-dimethylphenyl)propyl)-1,3,4-oxadiazol-2 (3H)-one] the IC50 [1] was 20 to 100 nM and the IC50 [2] was ≤ 1000 nM.
`CCCN1CN([C@H](c2n[nH]c(=O)o2)[C@H](C)c2c(F)ccc(C)c2C)S(=O)(=O)c2ccc(Cl)cc21` [Example 10, 5-((1S,2R)-1-(6-chloro-1,1-dioxido-4-propyl-3,4-dihydro-2H-benzo[e][1,2,4]thiadiazin-2-yl)-2-(6-fluoro-2,3-dimethylphenyl)propyl)-1,3,4-oxadiazol-2 (3H)-one] was tested, and the IC50 [1] was < 20 nM and the IC50 [2] was ≤ 1000 nM.
In the case of `Cc1cc2c(cc1Cl)N(C)CN([C@H](c1n[nH]c(=O)o1)[C@H](C)c1c(F)ccc(C)c1C)S2(=O)=O` [Example 12, 5-((1S,2R)-1-(6-chloro-4,7-dimethyl-1,1-dioxido-3,4-dihydro-2H-benzo[e][1,2,4]thiadiazin-2-yl)-2-(6-fluoro-2,3-dimethylphenyl)propyl)-1,3,4-oxadiazol-2 (3H)-one], the IC50 [1] is reported as 20 to 100 nM and the IC50 [2] is reported as 5000 to 10000 nM.
`Cc1ccc(F)c([C@@H](C)[C@@H](c2n[nH]c(=O)o2)N2CCN(C)c3cc(Cl)ccc3S2(=O)=O)c1C` [Example 13, 5-((1S,2R)-1-(7-chloro-5-methyl-1,1-dioxido-4,5-dihydrobenzo[f][1,2,5]thiadiazepin-2 (3H)-yl)-2-(6-fluoro-2,3-dimethylphenyl)propyl)-1,3,4-oxadiazol-2 (3H)-one] gave an IC50 [1] of 20 to 100 nM and an IC50 [2] of 1000 to 5000 nM.
For `Cc1ccc(F)c([C@@H](C)[C@@H](c2n[nH]c(=O)o2)N2CC(=O)N(C)c3cc(Cl)ccc3S2(=O)=O)c1C` [Example 14, 5-((1S,2R)-1-(7-chloro-5-methyl-1,1-dioxido-4-oxo-4,5-dihydrobenzo[f][1,2,5]thiadiazepin-2 (3H)-yl)-2-(6-fluoro-2,3-dimethylphenyl)propyl)-1,3,4-oxadiazol-2 (3H)-one], the IC50 [1] was 20 to 100 nM and the IC50 [2] was 1000 to 5000 nM.
In the case of `Cc1cc2c(cc1Cl)OCCN([C@H](c1n[nH]c(=O)o1)[C@H](C)c1c(F)ccc(C)c1C)S2(=O)=O` [Example 15, 5-((1S,2R)-1-(7-chloro-8-methyl-1,1-dioxido-3,4-dihydro-2H-benzo[b][1,4,5]oxathiazepin-2-yl)-2-(6-fluoro-2,3-dimethylphenyl)propyl)-1,3,4-oxadiazol-2 (3H)-one], the IC50 [1] is reported as 100 to 1000 nM and the IC50 [2] is reported as > 50000 nM.
In the case of `Cc1ccc(F)c([C@@H](C)[C@@H](c2n[nH]c(=O)o2)N2CCOc3cc(Cl)cnc3S2(=O)=O)c1C` [Example 16, 5-((1S,2R)-1-(7-chloro-1,1-dioxido-3,4-dihydro-2H-pyrido[3,2-b][1,4,5]oxathiazepin-2-yl)-2-(6-fluoro-2,3-dimethylphenyl)propyl)-1,3,4-oxadiazol-2 (3H)-one], the IC50 [1] is reported as 20 to 100 nM and the IC50 [2] is reported as 1000 to 5000 nM.
For `Cc1ccc(F)c([C@@H](C)[C@@H](c2n[nH]c(=O)o2)N2CCOc3cc(Cl)ncc3S2(=O)=O)c1C` [Example 17, 5-((1S, 2R)-1-(7-chloro-1,1-dioxido-3,4-dihydro-2H-pyrido[4,3-b][1,4,5]oxathiazepin-2-yl)-2-(6-fluoro-2,3-dimethylphenyl)propyl)-1,3,4-oxadiazol-2 (3H)-one], the IC50 [1] was 1000 to 10000 nM and the IC50 [2] was > 50000 nM.
For `COC(=O)c1cc(Cl)cc2c1S(=O)(=O)N([C@H](c1n[nH]c(=O)o1)[C@H](C)c1c(F)ccc(C)c1C)CCO2` [Example 18, methyl 7-chloro-2-((1S,2R)-2-(6-fluoro-2,3-dimethylphenyl)-1-(5-oxo-4,5-dihydro-1,3,4-oxadiazol-2-yl)propyl)-3,4-dihydro-2H-benzo[b][1,4,5]oxathiazepine-9-carboxylate 1,1-dioxide], the IC50 [1] was 100 to 1000 nM and the IC50 [2] was 10000 to 50000 nM.
